Results as given in patent US20190359645A1, “2'3'-CYCLIC DINUCLEOTIDES COMPRISING CARBOCYCLIC NUCLEOTIDE” (Institute of Organic Chemistry and Biochemistry ASCR, V.V.I., priority 2018, published 2019).

biological target: WT STING (Homo sapiens, UniProt Q86WV6, H232R); experiment: Differential scanning fluorimetry (DSF) with WT STING; format: binding; set-up: truncated human WT STING or AQ STING (amino acid residues 140-343); 8xHis (N, cleaved yes); SUMO (N, cleaved yes); made in house; host or cells: E. coli Rosetta-gami B (DE3); conditions: read-out: DSF ΔTm WT STING
Sequence (Q86WV6 140-343 H232R): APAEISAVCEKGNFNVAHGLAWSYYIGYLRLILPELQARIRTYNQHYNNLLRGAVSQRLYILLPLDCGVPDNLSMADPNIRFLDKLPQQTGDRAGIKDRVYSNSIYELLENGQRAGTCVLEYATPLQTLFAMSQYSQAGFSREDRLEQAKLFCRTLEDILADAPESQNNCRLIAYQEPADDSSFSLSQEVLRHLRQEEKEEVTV
From the text: Both WT and AQ human STING (G230A-R^293Q) cDNA were amplified by the use of PCR (Phusion® High-Fidelity DNA Polymerase, cat. # M0530S, NEB, Ipswich, USA) using oligonucleotides hSTING140-BamH-For ([…]) (SEQ ID NO:5) and hSTING379-Not-Rev3 ([…]) (SEQ ID NO:6) from pUNOI-hSTING-WT (cat. # punol-hstingwt, InvivoGen, San Diego, USA) and pUNO1-hSTING-HAQ plasmids (punol-hsting-haq, InvivoGen, San Diego, USA). Purified PCR products were cleaved with restriction enzymes BamHI (cat. # R^0136S, NEB, Ipswich, USA) and NotI (cat. # R^0189S, NEB, Ipswich, USA) and cloned into the pSUMO vector linearized with the identical enzymes. Plasmid pSUMO was created by introducing 8-His-SUMO sequence between NdeI and BamHI sites of pHis-parallel2 plasmid (Clontech, Moutain View, USA). pSUMO-STING WT or pSUMO-STING AQ plasmids thus encoded truncated human WT STING or AQ STING (amino acid residues 140-343) with N-terminal 8×His and SUMO tag.
The recombinant WT STING and AQ STING proteins were overexpressed in Rosetta-gami B (DE3) competent cells (cat. #71136-3, Merck Millipore, Billerica, USA). Bacterial pellets were re-suspended in ice-cold lysis buffer containing 50 mmol·l^−1 TrisCl (cat. # T1503, Sigma Aldrich, Czech Republic) pH 8.0, 300 mmol·l^−1 NaCl, 3 mmol·l^−1 (3-mercaptoethanol (cat. # M6250, Sigma Aldrich, Czech Republic), 10% glycerol (cat. #G5516, Sigma Aldrich, Czech Republic) and 20 mmol·l^−1 imidazole (cat. #15513, Sigma Aldrich, Czech Republic) using Dounce homogenizer. DNase I (cat. # D5025, Sigma Aldrich, Czech Republic) and RNase A (cat. # R^6513, Sigma Aldrich, Czech Republic) were added (final concentration 50 μg/ml) together with MgCl2 (final concentration 5 mmol·l^−1) to the homogenate and bacteria were lysed using French Press G-M™ High-Pressure Cell Press Homogenizer (1500 psi, 3 cycles). Lysate was spun 30,000 g for 20 minutes and supernatant was gently stirred with Ni-NTA resin (cat. #745400.25 Macherey-Nagel, Duren, Germany) for 30 minutes. The resin was poured into a chromatography column, washed with 50 ml buffer A (50 mmol·l^−1 TrisCl (pH 8.0), 800 mmol·l^−1 NaCl, 3 mmol·l^−1β-mercaptoethanol; 10% glycerol; 20 mmol·l^−1 imidazole) and 8-His-SUMO tagged STING proteins were eluted with 15 ml buffer A containing 300 mmol·l^−1 imidazole. The eluted proteins were cleaved with recombinant SUMO protease (80 pig/ml of protein solution, cat. #12588018, ThermoFisher, Waltham, USA). The proteins were further purified by size exclusion chromatography using HiLoad 16/60 Superdex 75 (cat. #28989333, GE Healthcare Bio-Sciences, Pittsburgh, USA) in 50 mmol·l^−1 Tris C1 buffer pH 7.4 containing 150 mmol·l^−1 NaCl, and 10% glycerol. Proteins were concentrated with Amicon® Ultra-15 10 K device (cat. # UFC901008, Merck Millipore, Billerica, USA) and flash frozen in liquid N2.
WT and AQ allelic forms of STING protein were diluted to the final concentration 0.1 mg/ml in 100 mmol·l^−1 TrisCl buffer pH 7.4 containing, 150 mmol·l^−1 NaCl, 1:500 SYPRO Orange (cat. # S6650, ThermoFisher, Waltham, USA) and 150 μM CDN or water. 20 μL solutions of the reaction mixtures were pipetted in triplicates into 96 well optical reaction plates and thermal denaturation of samples were performed on real time PCR cycler (LightCycler® 480 Instrument II—Roche, Basel, Switzerland). The first derivative of the thermal denaturation curves was performed to calculate denaturing temperatures of STING-CDN complexes and STING apoproteins. The thermal shift for each CDN was calculated by subtracting the average denaturing temperature of STING apoprotein from the average denaturing temperature of STING CDN complex.

**Q.** Which ΔTm at 150 µM does the source give for `Nc1nc2c(ncn2[C@@H]2C[C@@H]3COP(=O)(O)OC4C(O)[C@H](n5cnc6c(N)ncnc65)O[C@@H]4COP(O)(=S)OC2C3O)c(=O)[nH]1` (stereo partly drawn) [Compound 101, 2-amino-9-[(6R,8R,15R,17R)-8-(6-amino-9H-purin-9-yl)-3,9,12,18-tetrahydroxy-12-oxo-3-sulfanylidene-2,4,7,11,13-pentaoxa-3λ^5,12λ^5-diphosphatricyclo[13.2.1.0^6,10]octadecan-17-yl]-6,9-dihydro-1H-purin-6-one] here?
**A.** 12 °C

same assay, conditions: thermal shift, truncated human WT STING 0.1 mg/ml, 150 μM CDN

**Q.** `Nc1ncnc2c1ncn2[C@@H]1O[C@@H]2COP(=O)(S)O[C@@H]3[C@H](F)[C@@H](COP(=O)(S)O[C@H]2[C@H]1F)C[C@H]3n1cnc2c(=O)[nH]cnc21` (single isomer, unassigned) [Compound 128b] was tested. Which “DSF ΔTm WT STING” value did it give?
**A.** 7.9 °C

**Q.** With `Nc1ncnc2c1ncn2[C@@H]1O[C@@H]2COP(=O)(S)O[C@@H]3[C@H](F)[C@@H](COP(=O)(S)O[C@H]2[C@H]1F)C[C@H]3n1cnc2c(=O)[nH]cnc21` (single isomer, unassigned) [Compound 128c] as the compound, how does the “DSF ΔTm WT STING” value read?
**A.** 11.4 °C

**Q.** How did the “DSF ΔTm WT STING” value turn out when `Nc1ncnc2c1ncn2[C@@H]1O[C@@H]2COP(=O)(S)O[C@@H]3[C@H](F)[C@@H](COP(=O)(S)O[C@H]2[C@H]1F)C[C@H]3n1cnc2c(=O)[nH]cnc21` (single isomer, unassigned) [Compound 128d] was run?
**A.** 13.4 °C

same assay, conditions: thermal shift, truncated human WT STING 0.1 mg/ml, 150 μM CDN; read-out: DSF ΔTm WT STING

**Q.** With `Nc1ncnc2c1ncn2[C@@H]1O[C@@H]2COP(=O)(S)O[C@@H]3[C@H](F)[C@@H](COP(=O)(S)O[C@H]2[C@H]1F)C[C@H]3n1cnc2c(=O)[nH]cnc21` (single isomer, unassigned) [Compound 128a] as the compound, how does the ΔTm at 150 µM read?
**A.** 9.3 °C

**Q.** `Nc1nc2c(ncn2[C@@H]2C[C@@H]3COP(=O)(O)OC4C(O)[C@H](n5cnc6c(N)ncnc65)O[C@@H]4COP(=O)(O)OC2C3O)c(=O)[nH]1` (stereo partly drawn) [Compound 102, (6R,8R,15R,17R)-17-(2-amino-6-oxo-6,9-dihydro-1H-purin-9-yl)-8-(6-amino-9H-purin-9-yl)-3,9,12,18-tetrahydroxy-2,4,7,11,13-pentaoxa-3λ^5,12λ^5-diphosphatricyclo[13.2.1.0^6,10]octadecane-3,12-dione] was tested. Which ΔTm at 150 µM did it give?
**A.** 13.3 °C

**Q.** Which ΔTm at 150 µM does the source give for `Nc1nc2c(ncn2[C@@H]2C[C@@H]3COP(=O)(O)OC4C(O)[C@H](n5cnc6c(N)nc(F)nc65)O[C@@H]4COP(=O)(O)OC2C3O)c(=O)[nH]1` (stereo partly drawn) [Compound 103, (6R,8R,15R,17R)-8-(6-amino-2-fluoro-9H-purin-9-yl)-17-(2-amino-6-oxo-6,9-dihydro-1H-purin-9-yl)-3,9,12,18-tetrahydroxy-2,4,7,11,13-pentaoxa-3λ^5,12λ^5-diphosphatricyclo[13.2.1.0^6,10]octadecane-3,12-dione] here?
**A.** 7.9 °C

**Q.** `Nc1nc2c(ncn2[C@@H]2C[C@@H]3COP(=O)(O)OC4C(O)[C@H](n5cnc6c(=O)[nH]cnc65)O[C@@H]4COP(=O)(O)OC2C3O)c(=O)[nH]1` (stereo partly drawn) [Compound 104, (6R,8R,15R,17R)-17-(2-amino-6-oxo-6,9-dihydro-1H-purin-9-yl)-3,9,12,18-tetrahydroxy-8-(6-oxo-6,9-dihydro-1H-purin-9-yl)-2,4,7,11,13-pentaoxa-3λ^5,12λ^5-diphosphatricyclo[13.2.1.0^6,10]octadecane-3,12-dione] was tested. Which ΔTm at 150 µM did it give?
**A.** 5 °C

**Q.** How did the ΔTm at 150 µM turn out when `Nc1nc(N)c2ncn([C@@H]3O[C@@H]4COP(=O)(O)OC5C(O)[C@@H](COP(=O)(O)OC4C3O)C[C@H]5n3cnc4c(=O)[nH]c(N)nc43)c2n1` (stereo partly drawn) [Compound 105, (6R,8R,15R,17R)-17-(2-amino-6-oxo-6,9-dihydro-1H-purin-9-yl)-8-(2,6-diamino-9H-purin-9-yl)-3,9,12,18-tetrahydroxy-2,4,7,11,13-pentaoxa-3λ^5,12λ^5-diphosphatricyclo[13.2.1.0^6,10]octadecane-3,12-dione] was run?
**A.** 5.2 °C

**Q.** Which ΔTm at 150 µM does the source give for `Nc1ncc2ncn([C@@H]3O[C@@H]4COP(=O)(O)OC5C(O)[C@@H](COP(=O)(O)OC4C3O)C[C@H]5n3cnc4c(=O)[nH]c(N)nc43)c2n1` (stereo partly drawn) [Compound 106, (6R,8R,15R,17R)-17-(2-amino-6-oxo-6,9-dihydro-1H-purin-9-yl)-8-(2-amino-9H-purin-9-yl)-3,9,12,18-tetrahydroxy-2,4,7,11,13-pentaoxa-3λ^5,12λ^5-diphosphatricyclo[13.2.1.0^6,10]octadecane-3,12-dione] here?
**A.** 5.5 °C

**Q.** With `Nc1nc2c(ncn2[C@@H]2C[C@@H]3COP(=O)(O)OC4C(O)[C@H](n5cnc6c(S)ncnc65)O[C@@H]4COP(=O)(O)OC2C3O)c(=O)[nH]1` (stereo partly drawn) [Compound 107, (6R,8R,15R,17R)-17-(2-amino-6-oxo-6,9-dihydro-1H-purin-9-yl)-3,9,12,18-tetrahydroxy-8-(6-sulfanyl-9H-purin-9-yl)-2,4,7,11,13-pentaoxa-3λ^5,12λ^5-diphosphatricyclo[13.2.1.0^6,10]octadecane-3,12-dione] as the compound, how does the ΔTm at 150 µM read?
**A.** 2.2 °C

**Q.** For `CNc1ncnc2c1ncn2[C@@H]1O[C@@H]2COP(=O)(O)OC3C(O)[C@@H](COP(=O)(O)OC2C1O)C[C@H]3n1cnc2c(=O)[nH]c(N)nc21` (stereo partly drawn) [Compound 108, (6R,8R,15R,17R)-17-(2-amino-6-oxo-6,9-dihydro-1H-purin-9-yl)-3,9,12,18-tetrahydroxy-8-[6-(methylamino)-9H-purin-9-yl]-2,4,7,11,13-pentaoxa-3λ^5,12λ^5-diphosphatricyclo[13.2.1.0^6,10]octadecane-3,12-dione], which ΔTm at 150 µM is on record?
**A.** 6 °C

**Q.** For `Nc1nc2c(ncn2[C@@H]2C[C@@H]3COP(=O)(O)OC4C(N)[C@H](n5cnc6c(N)ncnc65)O[C@@H]4COP(=O)(O)OC2C3O)c(=O)[nH]1` (stereo partly drawn) [Compound 109, (6R,8R,15R,17R)-9-amino-17-(2-amino-6-oxo-6,9-dihydro-1H-purin-9-yl)-8-(6-amino-9H-purin-9-yl)-3,12,18-trihydroxy-2,4,7,11,13-pentaoxa-3λ^5,12λ^5-diphosphatricyclo[13.2.1.0^6,10]octadecane-3,12-dione], which ΔTm at 150 µM is on record?
**A.** 5.6 °C

**Q.** With `CSc1ncnc2c1ncn2[C@@H]1O[C@@H]2COP(=O)(O)OC3C(O)[C@@H](COP(=O)(O)OC2C1O)C[C@H]3n1cnc2c(=O)[nH]c(N)nc21` (stereo partly drawn) [Compound 110, (6R,8R,15R,17R)-17-(2-amino-6-oxo-6,9-dihydro-1H-purin-9-yl)-3,9,12,18-tetrahydroxy-8-[6-(methylsulfanyl)-9H-purin-9-yl]-2,4,7,11,13-pentaoxa-3λ^5,12λ^5-diphosphatricyclo[13.2.1.0^6,10]octadecane-3,12-dione] as the compound, how does the ΔTm at 150 µM read?
**A.** 4.9 °C

**Q.** With `Nc1nc2c(ncn2[C@@H]2C[C@@H]3COP(=O)(O)OC4C(F)[C@H](n5cnc6c(N)nc(F)nc65)O[C@@H]4COP(=O)(O)OC2C3O)c(=O)[nH]1` (stereo partly drawn) [Compound 111, (6R,8R,15R,17R)-8-(6-amino-2-fluoro-9H-purin-9-yl)-17-(2-amino-6-oxo-6,9-dihydro-1H-purin-9-yl)-9-fluoro-3,12,18-trihydroxy-2,4,7,11,13-pentaoxa-3λ^5,12λ^5-diphosphatricyclo[13.2.1.0^6,10]octadecane-3,12-dione] as the compound, how does the ΔTm at 150 µM read?
**A.** 5.1 °C
